Data on two compounds can be found in PubChem BioAssay (NCI).

This test concerns MDA-N. Description: NCI anticancer screen, dose series, 48 h.

The structures appear in SMILES notation.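 Briefly, cells in 96-well plates were exposed to five compound concentrations for 48 h, and endpoints were estimated by linear interpolation. TGI is the concentration that stops growth completely.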

`Nc1ccc(Cn2ccc3c4c(N)nc(N)nc4ccc32)cc1`: the TGI stood at 14.2 µM.

`CC1(C)N=C(c2ccccc2)SC12S[C@@H]1CCCC[C@H]1S2` yielded a TGI of 93.5 µM.
